We go through 1 molecule from paper PMC6701825, “Antiproliferative and Antimigratory Effects of a Novel YAP–TEAD Interaction Inhibitor Identified Using in Silico Molecular Docking” (Journal of Medicinal Chemistry, 2019).

In one assay the test system is MCF7 cells. The assay is described as follows: EdU proliferation assay in MCF7 cells. Type of assay: cell-based, human. The settings on record: MCF7, YAP-TEAD-independent growth, 18 hours then 6 hours EdU. As to the method:
Cell proliferation was measured using the Click-iT EdU 488 assay (Sigma-Aldrich). Briefly, the cells were treated with indicated concentrations of compounds for 24 h with the last 4 h being in the presence of 10 μM EdU. The cells were fixed in 4% formaldehyde and stained for EdU incorporation, following the kit’s standard protocol. The cells were counterstained with Hoechst 33342 nucleic acid for 20 min. Fluorescent images of at least three fields of view per well were counted using ImageJ software. Real-time analysis of cell migration was performed using an IncuCyte ZOOM live cell imaging system (Essen BioScience) according to the manufacturer’s instructions. Briefly, the cells were seeded (1.2 × 10^4 cells/well for HeLa cells, 1.5 × 10^4 cells/well for RaVSMCs, and 1 × 10^4 cells/well) into ImageLock 96-well plates. After 36 h, the cells were pretreated overnight with indicated concentrations of compounds. The wells were scratched using a WoundMaker tool, and the media were replaced containing test compounds. Phase contrast images of cell migration into the wounded area were acquired hourly for 24 h. Relative wound confluence was calculated using the Cell Migration Image analysis module of the IncuCyte ZOOM software. […]
MCF7 cells were incubated with the indicated concentrations of CPD3.1 (n=3). […] Edu incorporation in to newly synthesised DNA was detected using the Edu-Click detection kit. […]

The target in another assay is T1, TEAD1 (Homo sapiens, UniProt P28347).
T1 construct: #18881 (FLAG-YAP); host or cells: HeLa
T1 sequence (P28347 whole entry): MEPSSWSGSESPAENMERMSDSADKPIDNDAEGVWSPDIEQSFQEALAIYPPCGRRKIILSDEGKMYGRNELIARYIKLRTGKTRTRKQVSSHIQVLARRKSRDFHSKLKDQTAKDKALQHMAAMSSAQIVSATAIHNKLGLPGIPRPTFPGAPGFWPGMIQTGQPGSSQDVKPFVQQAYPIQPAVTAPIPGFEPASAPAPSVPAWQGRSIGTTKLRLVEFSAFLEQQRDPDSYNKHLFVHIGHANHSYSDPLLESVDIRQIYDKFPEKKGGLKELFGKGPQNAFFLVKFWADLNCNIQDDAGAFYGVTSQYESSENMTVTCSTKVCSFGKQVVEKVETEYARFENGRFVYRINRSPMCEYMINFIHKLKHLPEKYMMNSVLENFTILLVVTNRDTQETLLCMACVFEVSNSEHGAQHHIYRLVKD
The assay is described as follows: GAL4-TEAD1 fusion / 5xGAL4-secNLUC reporter in HeLa cells. In kind it is cell-based. The note with it: 100 μM, 6 h. The source says: (§1) TEAD proteins (TEAD1–4) display a high degree of sequence conservation in residues that create the hydrophobic pocket that is essential for YAP binding.[51] YAP proteins also display a high degree of conservation in residues that interact with this pocket.[51] We therefore tested whether CPD3.1 was able to inhibit YAP-induced activity of TEAD1, TEAD2, TEAD3, and TEAD4. To quantify the effect of CPD3.1 on the activity of each individual TEAD paralog, while excluding interference from endogenously expressed TEAD1–4 proteins, we expressed each TEAD paralog (TEAD1–4) fused to the yeast GAL4 DNA-binding domain. Cells were transfected with the GAL4–TEAD expression vector together with a secreted nanoluciferase reporter gene vector under control of a promoter containing five GAL4 DNA-binding elements. This system allows us to study the effect of CPD3.1 on the activity of each individual TEAD protein in isolation, without interference from endogenously expressed transcription factors. In addition, the cells were co-transfected with a YAP expression vector to activate the GAL4–TEAD fusion-dependent transcription (see Supplement Figure 9). Basal activities of TEAD1, TEAD2, TEAD3, and TEAD4 were inhibited by CPD3.1 (Figure 7A–D). […]
(§2) Figure 7 Compound 3.1 inhibits TEAD1, TEAD2, TEAD3, and TEAD4 activities. […] Secreted nano-luciferase activity was quantified in the conditioned media. […]

The next assay deals with T2, TEAD2 (Homo sapiens, UniProt Q15562).
T2 construct: #18881 (FLAG-YAP); host or cells: HeLa
T2 sequence (Q15562 whole entry): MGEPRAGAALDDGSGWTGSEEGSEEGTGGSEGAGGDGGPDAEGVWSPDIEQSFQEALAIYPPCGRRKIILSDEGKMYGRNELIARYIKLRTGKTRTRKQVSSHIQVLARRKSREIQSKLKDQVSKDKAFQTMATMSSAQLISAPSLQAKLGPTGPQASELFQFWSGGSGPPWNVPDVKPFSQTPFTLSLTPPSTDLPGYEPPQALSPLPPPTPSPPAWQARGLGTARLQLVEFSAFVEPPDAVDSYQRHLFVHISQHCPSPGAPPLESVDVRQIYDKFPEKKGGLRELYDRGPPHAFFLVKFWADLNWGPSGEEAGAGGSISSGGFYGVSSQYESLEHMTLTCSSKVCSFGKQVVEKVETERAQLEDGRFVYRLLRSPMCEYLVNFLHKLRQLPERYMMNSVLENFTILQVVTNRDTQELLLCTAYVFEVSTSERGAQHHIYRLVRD
Description: GAL4-TEAD2 fusion / 5xGAL4-secNLUC reporter in HeLa cells. The note with it: 100 μM, 6 h. Type of assay: cell-based.
Source text: as §1, §2

The target of the next assay is T3, TEAD4 (Homo sapiens, UniProt Q15561).
T3 construct: #18881 (FLAG-YAP); host or cells: HeLa
T3 sequence (Q15561 whole entry): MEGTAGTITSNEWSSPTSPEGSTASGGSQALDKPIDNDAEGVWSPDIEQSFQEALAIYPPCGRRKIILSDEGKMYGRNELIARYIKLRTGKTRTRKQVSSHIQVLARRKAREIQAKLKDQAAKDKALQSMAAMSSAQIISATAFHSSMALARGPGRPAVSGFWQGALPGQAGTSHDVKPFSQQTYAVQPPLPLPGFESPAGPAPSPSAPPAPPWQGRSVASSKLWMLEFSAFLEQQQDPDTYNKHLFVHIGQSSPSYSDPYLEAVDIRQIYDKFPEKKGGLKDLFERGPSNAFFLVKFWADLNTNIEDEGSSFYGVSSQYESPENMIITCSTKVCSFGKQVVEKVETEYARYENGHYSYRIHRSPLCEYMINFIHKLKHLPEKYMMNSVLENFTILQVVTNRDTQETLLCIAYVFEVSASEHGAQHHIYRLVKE
Description: GAL4-TEAD4 fusion / 5xGAL4-secNLUC reporter in HeLa cells. In kind it is cell-based. The note with it: 100 μM, 6 h.
Source text: as §1, §2

In assay [1] the test system is TEAD-independent GAL4 reporter vector. Description: TEAD-independent reporter vector basal activity (Supplement Figure 10A). The settings on record: 6 hours. Type of assay: cell-based.
Source text: as §1, with “7A–D). This likely reflects the inhibition of TEAD activity driven by endogenous expression of YAP.” for “7A–D).”

The target of another assay is T4, TEAD3 (Homo sapiens, UniProt Q99594).
T4 construct: #18881 (FLAG-YAP); host or cells: HeLa
T4 sequence (Q99594 whole entry): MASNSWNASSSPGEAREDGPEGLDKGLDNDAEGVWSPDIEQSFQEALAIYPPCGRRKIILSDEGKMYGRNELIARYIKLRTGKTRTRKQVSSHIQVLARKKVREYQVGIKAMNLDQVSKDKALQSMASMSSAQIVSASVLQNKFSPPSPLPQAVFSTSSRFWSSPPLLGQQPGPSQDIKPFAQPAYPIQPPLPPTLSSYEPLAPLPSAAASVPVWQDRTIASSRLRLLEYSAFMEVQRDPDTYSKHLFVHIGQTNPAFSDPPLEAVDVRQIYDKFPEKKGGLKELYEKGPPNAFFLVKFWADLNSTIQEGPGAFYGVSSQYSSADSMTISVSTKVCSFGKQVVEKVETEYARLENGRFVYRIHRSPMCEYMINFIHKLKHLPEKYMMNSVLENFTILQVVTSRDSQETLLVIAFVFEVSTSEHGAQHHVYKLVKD
Description: GAL4-TEAD3 fusion / 5xGAL4-secNLUC reporter in HeLa cells. Type of assay: cell-based. The settings on record: 100 μM, 6 h.
Source text: as §1, §2

Consider `Cc1ccc2c(c1)c1c3n2CCNC3CCC1` (stereo not shown) [CPD3.1], for which, in the assay with MCF7 cells, the “proliferation of MCF7 cells (EdU)” value is “did not inhibit the proliferation of MCF7 cells”. In addition, the “basal activity of GAL4-TEAD1” value at TEAD1 is on record as “inhibited”. Besides, at TEAD1 (YAP overexpression), the “YAP-stimulated activity of GAL4-TEAD1” value is recorded as “significantly inhibited”. Further, on TEAD2, the “basal activity of GAL4-TEAD2” value is “inhibited”. Besides, on TEAD2 (YAP overexpression), the “YAP-stimulated activity of GAL4-TEAD2” value was “significantly inhibited”. In addition, the “basal activity of GAL4-TEAD4” value on TEAD4 was “inhibited”. Moreover, the “YAP-stimulated activity of GAL4-TEAD4” value on TEAD4 (YAP overexpression) is “significantly inhibited”. The “basal activity of a TEAD-independent GAL4 reporter vector” value in assay [1] is “did not inhibit the basal activity”. On TEAD3, the “basal activity of GAL4-TEAD3” value is recorded as “inhibited”. Besides, the “YAP-stimulated activity of GAL4-TEAD3” value at TEAD3 (YAP overexpression) is reported as “significantly inhibited”.
